Test results: US12404244B2, “Pan-KIT kinase inhibitor having quinoline structure and application thereof” (Tarapeutics Science Inc., priority 2018, dated 2025)
Where two headings read alike, the source gives them in different places.

Tests used:
Assay type in all cases: cell-based
[1] = system: TEL-KIT/V559A-BaF3; assay: Proliferation of TEL-KIT/V559A-BaF3 cells (CCK-8); conditions: Mus musculus, read-out: GI50 TEL-KIT/V559A-BaF3
Text: (§1) Compounds as provided herein were further evaluated for their inhibitory effects on proliferation of cancer cells by testing their effects on growth of cancer cells. In this example the following cells were used: primary mouse B cells BaF3 (purchased from ATCC), GIST-T1 cells of the human gastrointestinal stromal tumor cell line (expressing wild-type KIT gene) (purchased from Cosmo Bio Co., Ltd. (Japan)). The present lab further constructed and used the following: mouse Tel-Kit-BaF3 (stably expressing KIT wild-type kinase), mouse Tel-Kit/T670I-BaF3 (stably expressing KIT T670I mutant kinase), mouse Tel-Kit/V559A-BaF3 (stably expressing KIT V559A mutant kinase), mouse Tel-Kit/V559D-BaF3 (stably expressing KIT V559D mutant kinase), mouse Tel-Kit/V559G-BaF3 (stably expressing KIT V559G mutant kinase), mouse Tel-Kit/V560D-BaF3 (stably expressing KIT V560D mutant kinase), mouse Tel-Kit/L576P-BaF3 (stably expressing KIT L576P mutant kinase), mouse Tel-Kit/V654A-BaF3 (stably expressing KIT V654A mutant kinase), mouse Tel-Kit/V654A/V559D-BaF3 (stably expressing KIT V654A V559D mutant kinase), mouse Tel-Kit/T670E-BaF3 (stably expressing KIT T670E mutant kinase), mouse Tel-Kit/T670I/V559D-BaF3 (stably expressing KIT T670I V559D mutant kinase), mouse Tel-Kit/S709F-BaF3 (stably expressing KIT S709F mutant kinase), mouse Tel-Kit/D816E-BaF3 (stably expressing KIT D816E mutant kinase), mouse Tel-Kit/D816H-BaF3 (stably expressing KIT D816H mutant kinase), mouse Tel-Kit/D820E-BaF3 (stably expressing KIT D820E mutant kinase), mouse Tel-Kit/D820G-BaF3 (stably expressing KIT D820G mutant kinase), mouse Tel-Kit/D820Y-BaF3 (stably expressing KIT D820Y mutant kinase), mouse Tel-Kit/N822K-BaF3 (stably expressing KIT N822K mutant kinase), mouse Tel-Kit/Y823D-BaF3 (stably expressing KIT Y823D mutant kinase), mouse Tel-Kit/A829P-BaF3 (stably expressing KIT A829P mutant kinase), GIST-T1-T670I cells of the human gastrointestinal stromal tumor cell line (expressing KIT-T670I mutant gene). The above cell lines were constructed by: amplifying respectively the sequences of human KIT and various mutant kinase regions of KIT via PCR, inserting the fragments respectively into MSCV-Puro vectors having a N-terminal TEL fragment and/or a NPM fragment and/or a TPR fragment (purchased from Clontech), transfecting mouse BaF3 cells with the vectors by means of retrovirus to obtain stably transfected cells, removing the growth factor IL-3, and thereby eventually obtaining cell lines that depend on the transferred protein KIT or various mutants of KIT. […]

[2] = system: TEL-KIT/T670I/V559D-BaF3; assay: Proliferation of TEL-KIT/T670I/V559D-BaF3 cells (CCK-8); conditions: Mus musculus, read-out: GI50 TEL-KIT/T670I/V559D-BaF3
Text: as §1

[3] = system: TEL-KIT/D816E-BaF3; assay: Proliferation of TEL-KIT/D816E-BaF3 cells (CCK-8); conditions: Mus musculus, read-out: GI50 TEL-KIT/D816E-BaF3
Text: as §1

[4] = system: TEL-KIT/Y823D-BaF3; assay: Proliferation of TEL-KIT/Y823D-BaF3 cells (CCK-8); conditions: Mus musculus, read-out: GI50 TEL-KIT/Y823D-BaF3
Text: as §1

[5] = system: TEL-KIT/V559G-BaF3; assay: Proliferation of TEL-KIT/V559G-BaF3 cells (CCK-8); conditions: Mus musculus, read-out: GI50 TEL-KIT/V559G-BaF3
Text: as §1

[6] = system: TEL-KIT/D820E-BaF3; assay: Proliferation of TEL-KIT/D820E-BaF3 cells (CCK-8); conditions: Mus musculus, read-out: GI50 TEL-KIT/D820E-BaF3
Text: as §1

[7] = system: TEL-KIT/L576P-BaF3; assay: Proliferation of TEL-KIT/L576P-BaF3 cells (CCK-8); conditions: Mus musculus, read-out: GI50 TEL-KIT/L576P-BaF3
Text: as §1, with “gene).” for “gene). The above cell lines were constructed by: amplifying respectively the sequences of human KIT and various mutant kinase regions of KIT via PCR, inserting the fragments respectively into MSCV-Puro vectors having a N-terminal TEL fragment and/or a NPM fragment and/or a TPR fragment (purchased from Clontech), transfecting mouse BaF3 cells with the vectors by means of retrovirus to obtain stably transfected cells, removing the growth factor IL-3, and thereby eventually obtaining cell lines that depend on the transferred protein KIT or various mutants of KIT.”

[8] = system: TEL-KIT/A829P-BaF3; assay: Proliferation of TEL-KIT/A829P-BaF3 cells (CCK-8); conditions: Mus musculus, read-out: GI50 TEL-KIT/A829P-BaF3
Text: as §1

[9] = system: TEL-KIT/V654A/V559D-BaF3; assay: Proliferation of TEL-KIT/V654A/V559D-BaF3 cells (CCK-8); conditions: Mus musculus, read-out: GI50 TEL-KIT/V654A/V559D-BaF3
Text: as §1

[10] = system: TEL-KIT/S709F-BaF3; assay: Proliferation of TEL-KIT/S709F-BaF3 cells (CCK-8); conditions: Mus musculus, read-out: GI50 TEL-KIT/S709F-BaF3
Text: as §1

[11] = system: TEL-KIT/V560D-BaF3; assay: Proliferation of TEL-KIT/V560D-BaF3 cells (CCK-8); conditions: Mus musculus, read-out: GI50 TEL-KIT/V560D-BaF3
Text: as §1

[12] = system: TEL-KIT/D820Y-BaF3; assay: Proliferation of TEL-KIT/D820Y-BaF3 cells (CCK-8); conditions: Mus musculus, read-out: GI50 TEL-KIT/D820Y-BaF3
Text: as §1

[13] = system: TEL-KIT/D816H-BaF3; assay: Proliferation of TEL-KIT/D816H-BaF3 cells (CCK-8); conditions: Mus musculus, read-out: GI50 TEL-KIT/D816H-BaF3
Text: as §1

[14] = system: TEL-KIT/T670E-BaF3; assay: Proliferation of TEL-KIT/T670E-BaF3 cells (CCK-8); conditions: Mus musculus, read-out: GI50 TEL-KIT/T670E-BaF3
Text: as §1

Row | GI50 ([1]; 72 hours, CCK-8) [nM] | GI50 ([2]; 72 hours, CCK-8) [nM] | GI50 ([3]; 72 hours, CCK-8) [nM] | GI50 ([4]; 72 hours, CCK-8) [nM] | GI50 ([5]; 72 hours, CCK-8) [nM] | GI50 ([6]; 72 hours, CCK-8) [nM] | GI50 ([7]; 72 hours, CCK-8) [nM] | GI50 ([8]; 72 hours, CCK-8) [nM] | GI50 ([9]; 72 hours, CCK-8) [nM] | GI50 ([10]; 72 hours, CCK-8) [nM] | GI50 ([11]; 72 hours, CCK-8) [nM] | GI50 ([12]; 72 hours, CCK-8) [nM] | GI50 ([13]; 72 hours, CCK-8) [nM] | GI50 ([14]; 72 hours, CCK-8) [nM] | Compound | other results
1 | – | – | – | – | – | – | – | – | – | – | – | – | – | – | COc1cc2nccc(Oc3ccc(NC(=O)Cc4ccc(C)c(C(F)(F)F)c4)cc3)c2cc1OC [Example 1, N-(4-((6,7-dimethoxyquinolin-4-yl)oxy)phenyl)-2-(4-methyl-3-(trifluoromethyl)phenyl)acetamide] | GI50 ([1]; 72 h): 16 nM; GI50 ([2]; 72 h): 48 nM; GI50 ([3]; 72 h): 9 nM; GI50 ([4]; 72 h): 15 nM; GI50 ([5]; 72 h): < 0.3 nM; GI50 ([6]; 72 h): 5 nM; GI50 ([7]; 72 h): 2 nM; GI50 ([8]; 72 h): 8 nM; GI50 ([9]; 72 h): 39 nM; GI50 ([10]; 72 h): 11 nM; GI50 ([11]; 72 h): 5 nM; GI50 ([12]; 72 h): 6 nM; GI50 ([13]; 72 h): 58 nM; GI50 ([14]; 72 h): 53 nM
2 | 21 | 45 | 16 | 35 | < 0.3 | 1 | 1 | 22 | 42 | 17 | 4 | 3 | 97 | 71 | COc1cc2nccc(Oc3ccc(NC(=O)Cc4ccc(Cl)c(C(F)(F)F)c4)cc3)c2cc1OC [Example 2, N-(4-((6,7-dimethoxyquinolin-4-yl)oxy)phenyl)-2-(4-chloro-3-(trifluoromethyl)phenyl)-acetamide] | –
3 | 20 | 12 | 59 | 704 | 4 | 93 | 6 | 180 | 19 | 28 | 35 | 172 | 315 | 89 | CCN(CC)CCNC(=O)c1c(C)[nH]c(/C=C2\C(=O)Nc3ccc(F)cc32)c1C [Sunitinib, reference compound] | –
